Source: PMC8840742 (Molecules, 2022)
Where two headings read alike, the source gives them in different places.

Tests used:
VeroE6 cells = test: Cytotoxicity in mock-infected VeroE6 cells (MTS assay); settings: read-out: MTS CC50; mock-infected VeroE6 cells, MTS assay
SARS-CoV-2 [1] = settings: for SI (CC50/EC50) / anti-SARS-CoV-2 activity in words: VeroE6 cells; for anti-SARS-CoV-2 activity in words: SAR discussion; for potency loss / fold less active relative to compound 8 (SARS-CoV-2): relative to compound 8, VeroE6
in vitro [2] = settings: African green monkey
[3] = biological target: SARS-CoV-2 nsp14 (N7-methyltransferase activity) (Severe acute respiratory syndrome coronavirus 2, UniProt P0DTD1); test: Nsp14 RapidFire MS assay; type: biochemical; settings: highest tested concentration of 100 µM
cathepsin L = cathepsin L (Homo sapiens, UniProt P07711); test: Cathepsin L inhibition; type: biochemical; settings: human protease involved in SARS-CoV-2 entry
[4] = biological target: SARS-CoV-2 replication–transcription complex (Severe acute respiratory syndrome coronavirus 2, UniProt P0DTD1); test: SARS-CoV-2 polymerase assay; type: biochemical; settings: highest tested concentration of 100 µM
[5] = system: SARS-CoV-2 spike pseudotyped VSV; test: organism not typed; type: cell-based; settings: Vero C1008, 24 h, read-out: SARS-CoV-2 pseudovirus neutralization EC50 (block of virus entry)
SARS-CoV-2 Mpro = SARS-CoV-2 Mpro (Severe acute respiratory syndrome coronavirus 2, UniProt P0DTD1); test: SARS-CoV-2 main protease (Mpro) FRET assay; type: biochemical; settings: highest tested concentration of 100 µM
Procedure: Compounds were tested in a Förster resonance energy transfer (FRET) assay for inhibition of the SARS-CoV-2 Mpro. The peptide Dabcyl-KTSAVLQ↓SGFRKM-E(Edans)-NH2 (Biosyntan, Berlin, Germany) (↓ indicates the cleavage site), corresponding to the P7–P6′ residues of the nsp4–nsp5 processing site of the viral polyprotein pp1a/pp1ab, was used as the substrate. Quenching of the Edans fluorescence by the Dabcyl residue was eliminated after cleavage of the scissile bond between P1-Gln and P1′-Ser and the difference in fluorescence emission was measured with a Tecan Spark fluorescence plate reader, operated at an excitation wavelength of 360 nm and an emission wavelength of 460 nm.
Candidate compounds were kept in a DMSO stock solution; the Mpro was in a buffer containing 20 mM HEPES, 120 mM NaCl, 0.4 mM EDTA, 20% glycerol, pH 7.0. DTT (4 mM) was added to the buffer prior to running the assay. Following incubation of 50 nM SARS-CoV-2 Mpro with 100 µM of the candidate compound for 10 min at 37 °C, the reaction was initiated by the addition of 10 µM of the FRET substrate to each well. The final DMSO concentration was <2%.

SARS-CoV-2 [6] = test: microbe, parasite or virus in culture; settings: Severe acute respiratory syndrome coronavirus 2, 96 h, read-out: SARS-CoV-2 EC50
Chikungunya virus = Chikungunya virus antiviral assay in Vero A cells; settings: read-out: Chikungunya virus EC50
cathepsin B = cathepsin B (Homo sapiens, UniProt P07858); test: Cathepsin B inhibition; type: biochemical; settings: human protease involved in SARS-CoV-2 entry
MERS-CoV = test: microbe, parasite or virus in culture; type: cell-based; settings: Middle East respiratory syndrome-related coronavirus, Huh-7, 42 h, read-out: MERS EC50
in vitro [7] = settings: human
[8] = system: MERS-CoV spike pseudotyped VSV; test: organism not typed; type: cell-based; settings: Vero C1008, 24 h, read-out: MERS pseudovirus neutralization EC50 (block of virus entry)
SARS-CoV-1 = test: microbe, parasite or virus in culture; type: cell-based; settings: Severe acute respiratory syndrome coronavirus, Vero C1008, read-out: SARS-CoV-1 EC50
[9] = Cytotoxicity in mock-infected VeroE6 cells (MTS assay); settings: African green monkey

Chain of cathepsin L (P07711 114-333): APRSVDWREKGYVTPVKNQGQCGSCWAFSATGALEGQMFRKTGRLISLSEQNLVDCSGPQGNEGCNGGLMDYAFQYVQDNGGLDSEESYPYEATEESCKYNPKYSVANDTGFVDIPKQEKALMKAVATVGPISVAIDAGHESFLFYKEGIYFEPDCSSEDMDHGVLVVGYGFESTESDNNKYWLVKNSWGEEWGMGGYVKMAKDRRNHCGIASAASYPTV

Row | Molecule | SI (CC50/EC50) (SARS-CoV-2 [1]) | CC50 (in vitro [2]) | EC50 (SARS-CoV-2 [6]) | further results
1 | 5-[2-(1-Cyclopentylpyrrolidin-3-yl)oxyphenyl]-3-(4-pyridyl)-1,2,4-thiadiazole [Compound 49] | 2.6 | – | – | CC50 (VeroE6 cells): 14 ± 1 µM; EC50 (SARS-CoV-2 [1]; read-out: SARS-CoV-2 EC50): 5.4 ± 2.1 µM
2 | c1ccc(CCN2CCC(Oc3ccccc3-c3nc(-c4ccncc4)no3)C2)cc1 (stereo not drawn) [Compound 1, 5-(2-((1-Phenethylpyrrolidin-3-yl)oxy)phenyl)-3-(pyridin-4-yl)-1,2,4-oxadiazole] | 4.5 | 21 ± 11 µM | 4.7 ± 3 µM | inhibitory activity on SARS-CoV-2 nsp14 (N7-methyltransferase activity) [3]: did not show any inhibitory activity; activity against cathepsin L (cathepsin L): inactive; inhibitory activity on SARS-CoV-2 replication–transcription complex [4]: did not show any inhibitory activity; EC50 [5]: 1250 nM; inhibitory activity on SARS-CoV-2 Mpro (SARS-CoV-2 Mpro): did not show any inhibitory activity; EC50 (Chikungunya virus): > 100 µM; activity against cathepsin B (cathepsin B): inactive; EC50 (MERS-CoV): 5 µM; CC50 (in vitro [7]): > 20 µM; EC50 [8]: 3.4 µM; EC50 (SARS-CoV-1): 4.2 ± 0.2 µM
3 | c1ccc(CCN2CC[C@@H](Oc3ccccc3-c3nc(-c4ccncc4)no3)C2)cc1 [Compound 1a, 5-[2-[(3R)-1-(2-Phenylethyl)pyrrolidin-3-yl]oxyphenyl]-3-(4-pyridyl)-1,2,4-oxadiazole] | 8.1 | 29 ± 24 µM | 3.6 ± 1.8 µM | –
4 | c1ccc(CCN2CC[C@H](Oc3ccccc3-c3nc(-c4ccncc4)no3)C2)cc1 [Compound 1b, 5-[2-[(3S)-1-(2-Phenylethyl)pyrrolidin-3-yl]oxyphenyl]-3-(4-pyridyl)-1,2,4-oxadiazole] | 12.8 | 18 ± 11 µM | 1.4 ± 0.1 µM | –
5 | c1ccc(-c2nc(-c3ccncc3)no2)c(OC2CCN(C3CCCC3)C2)c1 (stereo not drawn) [Compound 8, 5-[2-(1-Cyclopentylpyrrolidin-3-yl)oxyphenyl]-3-(4-pyridyl)-1,2,4-oxadiazole] | 7.6 | 41 ± 25 µM | 5.4 ± 3.5 µM | –
6 | c1ccc(-c2nc(-c3ccncc3)no2)c(OC2CCN(CC3CCCC3)C2)c1 (stereo not drawn) [Compound 9, 5-[2-[1-(Cyclopentylmethyl)pyrrolidin-3-yl]oxyphenyl]-3-(4-pyridyl)-1,2,4-oxadiazole] | 15 | 24 ± 8 µM | 1.6 ± 0.8 µM | –
7 | c1ccc(-c2nc(-c3ccncc3)no2)c(OCC2CCN(C3CCCC3)C2)c1 (stereo not drawn) [Compound 10, 5-[2-[(1-Cyclopentylpyrrolidin-3-yl)methoxy]phenyl]-3-(4-pyridyl)-1,2,4-oxadiazole] | 15.9 | 27 ± 6 µM | 1.7 ± 0.3 µM | –
8 | c1ccc(-c2nc(-c3ccncc3)no2)c(OCC2CCN(CC3CCCC3)C2)c1 (stereo not drawn) [Compound 11, 5-[2-[[1-(Cyclopentylmethyl)pyrrolidin-3-yl]methoxy]phenyl]-3-(4-pyridyl)-1,2,4-oxadiazole] | – | > 50 µM | 40 ± 14 µM | fold less active than compound 10 (SARS-CoV-2) (SARS-CoV-2 [1]; relative to compound 10, VeroE6): 20 fold
9 | c1ccc(-c2nc(-c3ccncc3)no2)c(OC2CCN(C3CCCC3)CC2)c1 [Compound 12, 5-[2-[(1-Cyclopentyl-4-piperidyl)oxy]phenyl]-3-(4-pyridyl)-1,2,4-oxadiazole] | 27.1 | 46 ± 18 µM | 1.7 ± 0.5 µM | –
10 | c1ccc(-c2nc(-c3ccncc3)no2)c(OCCNC2CCCC2)c1 [Compound 13, N-[2-[2-[3-(4-Pyridyl)-1,2,4-oxadiazol-5-yl]phenoxy]ethyl]cyclopentanamine] | 5.5 | 46 ± 13 µM | 8.4 ± 2.5 µM | –
11 | CN(CCOc1ccccc1-c1nc(-c2ccncc2)no1)C1CCCC1 [Compound 14, N-Methyl-N-[2-[2-[3-(4-pyridyl)-1,2,4-oxadiazol-5-yl]phenoxy]ethyl]cyclopentanamine] | 4.4 | 37 ± 11 µM | 8.5 ± 4 µM | –
12 | c1cncc(-c2noc(-c3ccccc3OC3CCN(C4CCCC4)C3)n2)c1 (stereo not drawn) [Compound 23, 5-[2-(1-Cyclopentylpyrrolidin-3-yl)oxyphenyl]-3-(3-pyridyl)-1,2,4-oxadiazole] | >6 | > 50 µM | 8.4 ± 5.7 µM | anti-SARS-CoV-2 activity in words (SARS-CoV-2 [1]): equipotent to 8
13 | c1ccc(-c2nc(-c3cncnc3)no2)c(OC2CCN(C3CCCC3)C2)c1 (stereo not drawn) [Compound 24, 5-[2-(1-Cyclopentylpyrrolidin-3-yl)oxyphenyl]-3-pyrimidin-5-yl-1,2,4-oxadiazole] | >3.3 | > 50 µM | 15 ± 2 µM | potency loss / fold less active relative to compound 8 (SARS-CoV-2) (SARS-CoV-2 [1]): 3 fold
14 | c1ccc(-c2nc(-c3ccnnc3)no2)c(OC2CCN(C3CCCC3)C2)c1 (stereo not drawn) [Compound 25, 5-[2-(1-Cyclopentylpyrrolidin-3-yl)oxyphenyl]-3-pyridazin-4-yl-1,2,4-oxadiazole] | – | > 50 µM | > 50 µM | potency loss / fold less active relative to compound 8 (SARS-CoV-2) (SARS-CoV-2 [1]): more than 10 fold
15 | c1ccc(-c2noc(-c3ccccc3OC3CCN(C4CCCC4)C3)n2)cc1 (stereo not drawn) [Compound 26, 5-[2-(1-Cyclopentylpyrrolidin-3-yl)oxyphenyl]-3-phenyl-1,2,4-oxadiazole] | <1 | 9 ± 2.5 µM | > 50 µM | anti-SARS-CoV-2 activity in words (SARS-CoV-2 [1]): showed only cytotoxicity
16 | COc1ccc(-c2noc(-c3ccccc3OC3CCN(C4CCCC4)C3)n2)cn1 (stereo not drawn) [Compound 27, 5-[2-(1-Cyclopentylpyrrolidin-3-yl)oxyphenyl]-3-(6-methoxy-3-pyridyl)-1,2,4-oxadiazole] | 4.9 | 20 ± 5.5 µM | 4.1 ± 2.2 µM | –
17 | FC(F)(F)c1cncc(-c2noc(-c3ccccc3OC3CCN(C4CCCC4)C3)n2)c1 (stereo not drawn) [Compound 28, 5-[2-(1-Cyclopentylpyrrolidin-3-yl)oxyphenyl]-3-[5-(trifluoromethyl)-3-pyridyl]-1,2,4-oxadiazole] | 4.8 | 10 ± 1 µM | 2.1 ± 0.1 µM | –
18 | FC(F)(F)c1ccncc1-c1noc(-c2ccccc2OC2CCN(C3CCCC3)C2)n1 (stereo not drawn) [Compound 29, 5-[2-(1-Cyclopentylpyrrolidin-3-yl)oxyphenyl]-3-[4-(trifluoromethyl)-3-pyridyl]-1,2,4-oxadiazole] | 8.4 | 26 ± 7 µM | 3.1 ± 1.3 µM | –
19 | Cc1ccncc1-c1noc(-c2ccccc2OC2CCN(C3CCCC3)C2)n1 (stereo not drawn) [Compound 30, 5-[2-(1-Cyclopentylpyrrolidin-3-yl)oxyphenyl]-3-(4-methyl-3-pyridyl)-1,2,4-oxadiazole] | 33.6 | 47 ± 1 µM | 1.4 ± 1 µM | –
20 | Cc1cnccc1-c1noc(-c2ccccc2OC2CCN(C3CCCC3)C2)n1 (stereo not drawn) [Compound 31, 5-[2-(1-Cyclopentylpyrrolidin-3-yl)oxyphenyl]-3-(3-methyl-4-pyridyl)-1,2,4-oxadiazole] | – | 18 ± 9 µM | 1.8 ± 0.3 µM | –
21 | c1ccc(-c2noc(-c3ccncc3)n2)c(OC2CCN(C3CCCC3)C2)c1 (stereo not drawn) [Compound 35, 3-[2-(1-Cyclopentylpyrrolidin-3-yl)oxyphenyl]-5-(4-pyridyl)-1,2,4-oxadiazole] | 4.8 | 30 ± 12 µM | 6.2 ± 2.7 µM | –
22 | c1ccc(-c2nnc(-c3ccncc3)o2)c(OC2CCN(C3CCCC3)C2)c1 (stereo not drawn) [Compound 38, 2-[2-(1-Cyclopentylpyrrolidin-3-yl)oxyphenyl]-5-(4-pyridyl)-1,3,4-oxadiazole] | 3.1 | 47 ± 15 µM | 15 ± 3 µM | potency loss / fold less active relative to compound 8 (SARS-CoV-2) (SARS-CoV-2 [1]): 3 fold
23 | c1ccc(-c2nc(-c3ccncc3)ns2)c(OC2CCN(C3CCCC3)C2)c1 (stereo not drawn) [Compound 46, 5-[2-(1-Cyclopentylpyrrolidin-3-yl)oxyphenyl]-3-(4-pyridyl)-1,2,4-thiadiazole] | 6.5 | – | 2.3 ± 0.4 µM | CC50 [9]: 15 ± 1 µM
24 | N#C[C@@]1(c2ccc3c(N)ncnn23)O[C@H](CO)[C@@H](O)[C@H]1O [GS-441524, reference compound] | – | – | 0.82 µM | –
